Reference: patent US8735406B2, “8-oxodihydropurine derivative” (Dainippon Sumitomo Pharma Co., Ltd., priority 2009, dated 2014)

Biological target: T1, FAAH (Rattus norvegicus, UniProt P97612)
T1 construct: Preparation of Rat Brain Membranes Preparations (FAAH Enzyme Solution); from tissue; host or cells: rat cerebrum (brain membrane preparation)
T1 sequence (P97612 1-579): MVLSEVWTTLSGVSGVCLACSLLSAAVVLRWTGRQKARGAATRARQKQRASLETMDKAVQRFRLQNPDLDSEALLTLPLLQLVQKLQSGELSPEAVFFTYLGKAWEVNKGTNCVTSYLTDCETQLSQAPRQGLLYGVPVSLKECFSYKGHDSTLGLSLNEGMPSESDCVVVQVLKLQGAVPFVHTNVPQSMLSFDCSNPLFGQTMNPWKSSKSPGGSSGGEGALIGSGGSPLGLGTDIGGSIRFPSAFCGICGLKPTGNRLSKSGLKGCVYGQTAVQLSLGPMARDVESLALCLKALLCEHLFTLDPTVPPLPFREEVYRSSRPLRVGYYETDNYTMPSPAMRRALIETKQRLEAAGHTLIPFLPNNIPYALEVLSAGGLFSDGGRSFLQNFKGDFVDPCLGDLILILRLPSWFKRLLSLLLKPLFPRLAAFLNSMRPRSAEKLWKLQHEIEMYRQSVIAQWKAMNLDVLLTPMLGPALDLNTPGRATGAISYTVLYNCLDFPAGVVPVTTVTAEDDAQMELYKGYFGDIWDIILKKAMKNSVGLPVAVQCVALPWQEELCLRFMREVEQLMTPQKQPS
Experiment: Determination of FAAH inhibitory activity in rat (rat brain membrane preparations, [3H]-anandamide hydrolysis)
Format: biochemical
Conditions: rat brain membrane preparations; for inhibition at 0.1 µM: 100 nM test substance, read-out: FAAH Inhibition, Inhibition Rate at 100 nM; for IC50: test substance 0.1 nM to 1 μM, read-out: FAAH Inhibition IC50
Method in brief: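 Rat cerebrum membranes (100 μg/mL protein) preincubated 10 min at 37 °C with compound (1% DMSO) in pH 7.6 Tris buffer with 1.5% BSA. Substrate 2 nM [3H]-anandamide plus 2 μM anandamide added for 10 min at 37 °C. [3H]-ethanolamine in the aqueous phase after chloroform/methanol extraction was scintillation counted; IC50 over 0.1 nM–1 μM.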

| Structure (SMILES) | inhibition at 0.1 µM | IC50 |
| --- | --- | --- |
| COCc1ncc2c(n1)n(C)c(=O)n2C(=O)N1CC(c2ccc(F)cc2)C1 [Example 439, 7-{[3-(4-Fluorophenyl)azetidin-1-yl]carbonyl}-2-(methoxymethyl)-9-methyl-7,9-dihydro-8H-purine-8-one] | 104% | 5 nM |
| CN(C)C(=O)n1c(=O)n(C)c2cnc(COc3ccccc3Cl)nc21 [Example 421] | 85% | 95 nM |
| Cn1c(=O)n(C(=O)N2CCCC2)c2cnc(Cc3c(F)cccc3F)nc21 [Example 268, 2-(2,6-Difluorobenzyl)-9-methyl-7-(pyrrolidin-1-ylcarbonyl)-7,9-dihydro-8H-purine-8-one] | 93% | 48 nM |
| Cn1c(=O)n(C(=O)N2CCC2)c2nc(COc3ccc(F)cc3)ncc21 [Example 426] | 84% | 9 nM |
| Cn1c(=O)n(C(=O)N2CCCC2)c2cnc(-c3cccnc3)nc21 [Example 205, 9-Methyl-2-(pyridin-3-yl)-7-(pyrrolidin-1-ylcarbonyl)-7,9-dihydro-8H-purine-8-one] | 98% | 5 nM |
| CN(C)C(=O)n1c(=O)n(C)c2cnc(COc3ccccc3OC(F)(F)F)nc21 [Example 430] | 80% | 24 nM |
| Cn1c(=O)n(C(=O)N2CCCC2)c2cnc(-c3ccccc3)nc21 [Example 16, 9-Methyl-2-phenyl-7-(pyrrolidin-1-ylcarbonyl)-7,9-dihydro-8H-purine-8-one] | 100% | 7 nM |
| CCOc1cccc(-c2ncc3c(n2)n(C)c(=O)n3C(=O)N2CCCC2)c1 [compound 175] | 101% | 7 nM |
| Cc1ccc(-c2ncc3c(n2)n(C)c(=O)n3C(=O)N2CCCC2)cc1F [compound 192] | 103% | 39 nM |
| CCOCc1ncc2c(n1)n(C)c(=O)n2C(=O)N1CC(c2cccc(F)c2)C1 [Example 462, 2-(Ethoxymethyl)-7-{[3-(3-fluorophenyl)azetidin-1-yl]carbonyl}-9-methyl-7,9-dihydro-8H-purine-8-one] | 113% | 10 nM |
| COc1cccc(-c2ncc3c(n2)n(C)c(=O)n3C(=O)N2CCN(c3ccc(Cl)cc3)CC2)c1 [Example 142, 7-{[4-(4-Chlorophenyl)piperazin-1-yl]carbonyl}-2-(3-methoxyphenyl)-9-methyl-7,9-dihydro-8H-purine-8-one] | 99% | 5 nM |
| Cn1c(=O)n(C(=O)N2CCCC2)c2cnc(Cc3ccccc3F)nc21 [Example 254, 2-(2-Fluorobenzyl)-9-methyl-7-(pyrrolidin-1-ylcarbonyl)-7,9-dihydro-8H-purine-8-one] | 98% | 33 nM |
| Cn1c(=O)n(C(=O)N2CCC2)c2cnc(COc3ccc(F)cc3)nc21 [Example 402, 7-(azetidin-1-ylcarbonyl)-2-[(4-fluorophenoxy)methyl]-9-methyl-7,9-dihydro-8H-purine-8-one] | 103% | 10 nM |
| CCCc1ncc2c(n1)n(C)c(=O)n2C(=O)N(C)CCc1ccc(Cl)cc1 [Example 154, N-[2-(4-Chlorophenyl)ethyl]-N,9-dimethyl-8-oxo-2-propyl-8,9-dihydro-7H-purine-7-carboxamide] | 101% | 2 nM |
| Cn1c(=O)n(C(=O)N2CCC2)c2nc(CCc3ccc(C4CC4)cc3)ncc21 [compound 573] | 99% | 16 nM |
| CN(C)C(=O)n1c(=O)n(C)c2cnc(CCc3cc(F)c(F)c(F)c3)nc21 [compound 504] | 100% | 6 nM |
| COc1cccc(-c2ncc3c(n2)n(C(=O)N2CCCC2)c(=O)n3C)c1 [Example 230, 2-(3-Methoxyphenyl)-7-methyl-9-(pyrrolidin-1-ylcarbonyl)-7,9-dihydro-8H-purine-8-one] | 94% | 44 nM |
| CN(C)C(=O)n1c(=O)n(C)c2cnc(-c3cccc(C(F)(F)F)c3)nc21 [compound 325] | 101% | 11 nM |
